Data published in patent US4141986A, “Antibiotics 890A2 and 890A5” (Merck & Co., Inc., priority 1977, dated 1979).

Tested on: Vibrio percolans ATCC 8461
Test: Assay procedure for 890 Assay Units, disc-diffusion with cephaloridine standard
Type: cell-based
Protocol: A conventional agar plate disc-diffusion method is employed using Vibrio percolans ATCC 8461 as tester organism. Cephaloridine is employed as a standard. Plates containing Vibrio percolans ATCC 8461 are prepared as follows. A culture of Vibrio percolans ATCC 8461 is incubated in nutrient broth-yeast extract overnight on a rotary shaker at 28° C. and then diluted to a density of 60% transmittance at 660 nm. A 33.2 ml. portion of this diluted culture is added to 1 liter of a medium composed of nutrient agar plus 0.2% yeast extract maintained at 46° C. The inoculated agar-containing medium is poured into 100 × 15 mm. plastic-petri dishes, 10 ml. per dish, chilled, and maintained at 2°-4° C. for up to 5 days before use.
The concentration of cephaloridine which is equivalent to 1 unit/ml. of 890A is deterined by assay on plates prepared as above, but containing 5 ml. of inoculated medium per plate, as follows. Four concentrations of cephaloridine constitute the standard -- 3.12, 6.25, 12.5 and 25 mcg per ml. with the 12.5 mcg per ml. as a reference solution. The zone diameters on a 5 ml. plate for the standard are as follows:
A unit is defined as the amount of antibiotic per ml. producing a 25 mm. zone of inhibition on a 5 ml. plate as described in section I above. Therefore, in this assay a concentration of 2.5 mcg per ml. of cephaloridine is considered equivalent to 1 unit of 890A per ml. Since the slope of the line for cephaloridine is 4.0 calculations of the potency of a sample are made using a slope of 4.0.

O=C(Cc1cccs1)N[C@@H]1C(=O)N2C(C(=O)[O-])=C(C[n+]3ccccc3)CS[C@H]12 [cephaloridine, Cephaloridine]
concentration considered equivalent to 1 unit of 890A per ml. (25 mm. zone of inhibition on a 5 ml. plate): 2.5 mcg per ml.
zone of inhibition at 3.12 µg/mL (Comamonas terrigena, ATCC8461, 3.12 mcg./ml., 5 ml. plate, read-out: Zone Diameter): 16.8 mm
zone of inhibition at 6.25 µg/mL (Comamonas terrigena, ATCC8461, 6.25 mcg./ml., 5 ml. plate, read-out: Zone Diameter): 22.3 mm
zone of inhibition at 12.5 µg/mL (Comamonas terrigena, ATCC8461, 12.5 mcg./ml., 5 ml. plate, read-out: Zone Diameter): 25 mm
zone of inhibition at 25 µg/mL (Comamonas terrigena, ATCC8461, 25 mcg./ml., 5 ml. plate, read-out: Zone Diameter): 29.6 mm
slope of the line (zone diameter against concentration of the standard): 4.0
